# Results taken from patent US10208007B2, “Use of strigolactones and strigolactone analogs for treating proliferative conditions” (The State of Israel, Ministry of Agriculture & Rural …, priority 2011, dated 2019).
# Entries after “also recorded” stand apart in the source; their conditions may differ.
# Experiments:
# U20S cells [1] = assay: XTT viability after timed exposure and strigolactone removal; details: Homo sapiens
# Protocol: At each time point the strigolactone analog was removed and the media was replaced with fresh growth media without strigolactone analog. […] In addition, viability of MDA-MB-231 cells was assessed after 24 hours by using an XTT assay (FIG. 9B). […] After 2, 4 or 24 hours the media was removed, cells were washed and media was replaced with growth media minus strigolactone analog.
# [2] = system: MDA-MB-231 breast cancer cells; assay: Xenograft tumor model; assay type: in vivo; details: SCID mice, 10 mg/kg iv twice a week, 4 treatments
# Protocol: To establish subcutaneous tumors, actively growing MDA-MB-231 breast cancer cells were harvested and 1.5×10^6 cells in 100 μl PBS were injected into the mammary fat pads of mice (n=15). The lesions were allowed to grow until their average sizes were approximately 4.5 mm×4.5 mm (about 3 weeks). The mice were then randomized into 3 groups for various treatments including vehicle control, and two strigolactone analogs: ST-362 and ST-357. Treatment started at day 1, 10 ppm (10 mg/Kg) twice a week for a total of 4 treatments. ST-362 and ST-357 were administered intravenously (iv). Body weight and tumor measurements were recorded twice weekly. Tumor cross-sectional area was calculated by multiplying the length×width and tumor volume was calculated by cubing the mean value of length and width. Results are summarized and plotted.
# Data are expressed as mean±SD. Statistical significance was assessed by one-way ANOVA and Games-Howell Post Hoc test. A value of P<0.05 was considered significant and represents significance compared with untreated controls, unless indicated otherwise. Data was analyzed by Graphpad PRISMS and SPSS.
# Cyclin B1 = assay: Western blot analysis of cyclin B1 levels; assay type: cell-based, human; details: DU145, 24 hour treatment, then ALLN 4 or 8 hours
# A549 = assay: XTT viability assay; assay type: cell-based, human; details: A549, 3 days
# Protocol: (§1) Viability was assayed after 3 days (XTT, ATCC). IC50 concentrations are indicated (Table 3 above).
# MDA-MB-436 = assay: XTT viability assay; assay type: cell-based, human; details: MDA-MB-436, 3 days
# Protocol: as §1
# U20S cells [3] = assay: Strigolactone analog induced gene expression changes; assay type: cell-based, human; details: 5 ppm
# Protocol: To further elucidate the transcriptional program by which strigolactone analogs may affect growth and survival of cancer cells, U20S cells were treated with ST-362 or MEB-55 (5 ppm) for either 6 or 24 hours to permit early and late gene expression changes to be distinguished. U20S cells were selected based on their enhanced sensitivity to strigolactone treatment (see FIG. 7). […] Up-regulation of cytokines (CCL3L3, GDF15) and growth factors (PGF), and down-regulation of TGFBR11 was also noted. Apoptosis regulating genes were also identified, including DDIT3, BIRC3 and BAG3. DDIT3 encodes a member of the CCAAT/enhancer-binding protein (C/EBP) family of transcription factors and functions as a dominant-negative inhibitor by forming heterodimers with other C/EBP members and preventing their DNA binding activity. DDIT3 is induced by stress, including DNA damage and DDIT3 over-expression can induce cell cycle arrest. After 6 hours, MEB-55 treatment was associated with increased expression of p21cip (CDKN1A), Cyclin F (CCNF), Cyclin A2 (CCNA2) and decreased expression of CDK6, whereas ST-362 induced only a modest down-regulation of Cyclin B1 (CCNB1). Therefore, changes in the expression profile of cell cycle regulators, was not a global hallmark of strigolactone exposure. The only exception was Cyclin G2 (CCNG2) whose expression was elevated in both ST-362 and MEB-55 treatment groups. Cyclin G2 is an unconventional cyclin homolog which is linked to growth inhibition and whose expression is induced by DNA damaging chemotherapeutics.
# MDA-MB-231 = assay: XTT viability after timed exposure and strigolactone removal; assay type: cell-based, human; details: 5 and 10 ppm, XTT at 24 hours
# Protocol: As further detailed herein below in the Experimental section, strigolactones and strigolactone analogs inhibit growth through a G2-phase arrest and cause apoptosis at higher concentrations wherein the GR-24 treatment causes an increase in the percentage of MCF-7 and MDA-MB-231 cells in G2-phase. Cells were treated with strigolactone analogs to determine whether or not they alter cell cycle progression in the same way. Dose dependant increases in the percentage of cells in G2 phase were observed. […] After a total of 24 hours, an XTT assay was carried out.
compound,measurement,setting,value
"CC1=CC(O/C=C2/C(=O)c3c(c4cc(-c5cccs5)ccc4n3C)C2C)OC1=O (stereo not shown) [ST-357, (2E)-1,4-dimethyl-2-((4-methyl-5-oxo-2,5-dihydrofuran-2-yloxy)methylene)-7-(thiophen-2-yl)-1,2-dihydrocyclopenta[b]indol-3(4H)-one]",viability at 10 ppm,U20S cells [1]; 1 h,80%
same,viability at 20 ppm,U20S cells [1]; 1 h,77%
same,viability at 10 ppm,U20S cells [1]; 4 h,62%
same,viability at 20 ppm,U20S cells [1]; 4 h,10%
same,Mean tumor volume,[2]; control 24.2±5.57,15.9±2.61 mm^3
same,Tumor growth,[2]; p<0.0015,effective in inhibiting tumor growth
"CC1=CC(O/C=C2\Cc3c(n(C)c4cc(-c5cccs5)ccc34)C2=O)OC1=O (racemic) [MEB-55, (±) 2E-4-methyl-2-(4-methyl-5-oxo-2,5-dihydrofuran-2-yloxymethylene)-6-thiophen-2-yl-1,4-dihydro-2H-cyclopenta[b]indol-3-one]",Partial rescue of Cyclin B1 levels by ALLN,Cyclin B1,1.3 fold
same,IC50 at 72 h,A549,6.9 ppm
same,IC50 at 72 h,MDA-MB-436,8.3 ppm
same,viability at 10 ppm,U20S cells [1]; 1 h,52%
same,viability at 20 ppm,U20S cells [1]; 1 h,40%
same,viability at 10 ppm,U20S cells [1]; 4 h,0%
same,viability at 20 ppm,U20S cells [1]; 4 h,0%
same,Fold-Change ABCB1,U20S cells [3]; 6 hours,8.1 fold
same,Fold-Change AHSA1,U20S cells [3]; 6 hours,2.6 fold
same,Fold-Change ALDH1B1,U20S cells [3]; 6 hours,−3.1 fold
same,Fold-Change ATF3,U20S cells [3]; 6 hours,4.0 fold
same,Fold-Change BAG3,U20S cells [3]; 6 hours,7.7 fold
same,Fold-Change BIRC3,U20S cells [3]; 6 hours,−3.2 fold
same,Fold-Change CCNG2,U20S cells [3]; 6 hours,3.1 fold
same,Fold-Change CLDN12,U20S cells [3]; 6 hours,2.5 fold
same,Fold-Change CYP24A1,U20S cells [3]; 6 hours,−3.6 fold
same,Fold-Change DDIT3,U20S cells [3]; 6 hours,14.1 fold
same,Fold-Change FGF2,U20S cells [3]; 6 hours,2.1 fold
same,Fold-Change FOXD1,U20S cells [3]; 6 hours,−2.7 fold
same,Fold-Change FOXO4,U20S cells [3]; 6 hours,2.2 fold
same,Fold-Change GDF15,U20S cells [3]; 6 hours,19.0 fold
same,Fold-Change GEM,U20S cells [3]; 6 hours,4.9 fold
same,Fold-Change HSPA1A,U20S cells [3]; 6 hours,12.4 fold
same,Fold-Change HSPA1B,U20S cells [3]; 6 hours,12.4 fold
same,Fold-Change HSPA1L,U20S cells [3]; 6 hours,3.9 fold
same,Fold-Change HSPA6,U20S cells [3]; 6 hours,158.7 fold
same,Fold-Change HSPA7,U20S cells [3]; 6 hours,55.7 fold
same,Fold-Change HSPB8,U20S cells [3]; 6 hours,3.6 fold
same,Fold-Change PGF,U20S cells [3]; 6 hours,7.0 fold
same,Fold-Change PPP1R15A,U20S cells [3]; 6 hours,3.7 fold
same,Fold-Change PTGS2,U20S cells [3]; 6 hours,6.9 fold
same,Fold-Change SLC3A2,U20S cells [3]; 6 hours,3.4 fold
same,Fold-Change SLC7A11,U20S cells [3]; 6 hours,2.1 fold
same,Fold-Change SLC44A2,U20S cells [3]; 6 hours,2.1 fold
same,Fold-Change TGFBR2,U20S cells [3]; 6 hours,−2.3 fold
same,Fold-Change ABCA13,U20S cells [3]; 24 hours,−2.6 fold
same,Fold-Change AMPH,U20S cells [3]; 24 hours,−2.7 fold
same,Fold-Change BIRC3,U20S cells [3]; 24 hours,2.4 fold
same,Fold-Change CCL20,U20S cells [3]; 24 hours,11.9 fold
same,Fold-Change CTGF,U20S cells [3]; 24 hours,2.1 fold
same,Fold-Change CYR61,U20S cells [3]; 24 hours,2.2 fold
same,Fold-Change DHRS2,U20S cells [3]; 24 hours,−2.3 fold
same,Fold-Change DUSP5,U20S cells [3]; 24 hours,3.8 fold
same,Fold-Change E2F2,U20S cells [3]; 24 hours,−2.2 fold
same,Fold-Change EGR1,U20S cells [3]; 24 hours,2.7 fold
same,Fold-Change ESM1,U20S cells [3]; 24 hours,21.2 fold
same,Fold-Change GDF15,U20S cells [3]; 24 hours,2.2 fold
same,Fold-Change HSPA5,U20S cells [3]; 24 hours,−2.1 fold
same,Fold-Change ITGA2,U20S cells [3]; 24 hours,3.6 fold
same,Fold-Change KIF20A,U20S cells [3]; 24 hours,−2.4 fold
same,Fold-Change LAMA1,U20S cells [3]; 24 hours,2.1 fold
same,Fold-Change RN7SK,U20S cells [3]; 24 hours,15.3 fold
same,Fold-Change SCG5,U20S cells [3]; 24 hours,4.9 fold
same,Fold-Change SLC7A11,U20S cells [3]; 24 hours,4.1 fold
same,Fold-Change SNORD3A,U20S cells [3]; 24 hours,4.2 fold
same,Fold-Change SNORD3C,U20S cells [3]; 24 hours,4.8 fold
same,Fold-Change SNORD3D,U20S cells [3]; 24 hours,4.8 fold
same,Fold-Change SPP1,U20S cells [3]; 24 hours,6.6 fold
same,Fold-Change TGFBI,U20S cells [3]; 24 hours,−2.0 fold
same,Cell viability,MDA-MB-231; 2 hours exposure,No significant changes; also recorded: No changes in cell viability
same,Cell viability,"MDA-MB-231; 4 hours exposure, p<0.01",significant decrease in viability
